Like-named read-outs stand apart in the source and are kept apart here.

The subject of data set [1] is SK-OV-3 cancer cells. The experiment in a line: SK-OV-3 cancer cell proliferation inhibition (WST-1 assay). It counts as cell-based. Particulars: Homo sapiens, read-out: Proliferation inhibition effect (10 nM; %). The procedure:
Meanwhile, in the present Example, proliferation inhibition effect of the compound in accordance with Comparative Example 1 and the compounds corresponding to Entry 59 to Entry 72 on SK-OV-3 cancer cells were checked, and a result thereof was as shown in [Table 5].
<Experiment Method of Proliferation Inhibition Effect>
SK-OV-3 cells floated on McCoy's 5A Medium in which 10% FBS and 1% P/S were added were inoculated into a 96-Well plate at a concentration of 3×10^4/100 μl per Well and cultured at 37° C. for 4 hours and then, treated with 100 μl of each compound, so that a final concentration of 10 nM was attained. Then, the cells were cultured at 37° C. for 72 hours. As a control, the cells were treated with DMSO as a solvent of the compounds to attain a final concentration of 0.1%. Each well was treated with 10 μl of a WST-1 assay reagent (iTSBio, Korea), and cultured at 37° C. for 2 hours. Then, absorbance was measured with an automatic Microplate Reader at 450 nm. A cell growth inhibition level was calculated by {(A450control−A450compound)/A450control}*100.

Regarding `COc1ccc2c(O)cc3c(c2c1)[C@H](CCl)CN3C(=O)c1cc2cccnc2[se]1` [Entry 68], the inhibition at 0.01 µM in data set [1] (SK-OV-3, 72 h) was determined as 82%.
Regarding `COc1ccc2c(O)cc3c(c2c1)[C@H](CCl)CN3C(=O)c1cc2occc2[se]1` [Entry 69], in data set [1] (SK-OV-3, 72 h), the inhibition at 0.01 µM was 73%.
The same measure, in the same setting: the result for `COc1ccc2c(O)cc3c(c2c1)[C@H](CCl)CN3C(=O)c1cc2cc(NC(C)=O)ccc2[se]1` [Entry 61, seco-MCBI-Acetamino-Selenophene] reads 81%; that for `COc1ccc2[se]c(C(=O)N3C[C@@H](CCl)c4c3cc(O)c3ccc(OC)cc43)cc2c1` [Entry 60, seco-MCBI-Methoxy-Selenophene], 78%.
On to `COc1cc2cc(C(=O)N3C[C@@H](CCl)c4c3cc(O)c3ccccc43)[nH]c2c(OC)c1OC` [Entry 70, CBI-TMI, reference compound], for which the inhibition at 0.01 µM in data set [1] (SK-OV-3 cells, final concentration of 10 nM, cultured 72 hours, WST-1, absorbance 450 nm, vs DMSO control) is 80%.
As to `COc1ccc2c(O)cc3c(c2c1)[C@H](CCl)CN3C(=O)c1cc2cc([N+](=O)[O-])ccc2[se]1` [Entry 59, seco-MCBI-Nitro-Selenophene], in data set [1] (SK-OV-3, 72 h), the inhibition at 0.01 µM came out at 74%.
With `CCOC(=O)c1cc2cc(N)ccc2[se]1`, the melting point lay within 78 to 80 °C.
As to `COc1ccc2c(O)cc3c(c2c1)[C@H](CCl)CN3C(=O)c1cc2sccc2[se]1` [Entry 63], the inhibition at 0.01 µM in data set [1] (SK-OV-3, 72 h) was 78%.
Still for that read-out and setting: the result for `COc1ccc2cc(C(=O)N3C[C@@H](CCl)c4c3cc(O)c3ccc(OC)cc43)[se]c2c1` [Entry 64] reads 85%; that for `COc1ccc2c(O)cc3c(c2c1)[C@H](CCl)CN3C(=O)c1cc2cc(OC)c(OC)cc2[se]1` [Entry 67], 78%.
Regarding `COc1ccc2c(O)cc3c(c2c1)[C@H](CCl)CN3C(=O)c1cc2cc(OC)c(OC)c(OC)c2[nH]1` [Comparative Example 1, seco-MCBI-TMI, reference compound], in data set [1] (SK-OV-3, 72 h), the inhibition at 0.01 µM was 80%.
Regarding `COc1ccc2c(c1)C13CC1CN(C(=O)c1cc4cc(NC(C)=O)ccc4[se]1)C3=CC2=O` (stereo not drawn) [Entry 62], the inhibition at 0.01 µM in data set [1] (SK-OV-3, 72 h) was determined as 86%.
Still for that read-out and setting: the result for `CCCC(=O)Nc1ccc2[se]c(C(=O)N3C[C@H]4C[C@@]45C3=CC(=O)c3ccccc35)cc2c1` [Entry 72] reads 75%; that for `CCCC(=O)Nc1ccc2[se]c(C(=O)N3C[C@@H](CCl)c4c3cc(O)c3ccccc43)cc2c1` [Entry 71], 73%.
As to `CCCCCC(=O)Nc1ccc2[se]c(C(=O)N3C[C@@H](CCl)c4c3cc(O)c3ccc(OC)cc43)cc2c1` [Entry 66], in data set [1] (SK-OV-3, 72 h), the inhibition at 0.01 µM amounted to 87%.

Broadly, the melting point is the temperature, or range, at which the solid turns liquid.

(Values after patent publication US9365590B2, “Selenophene-fused aromatic compound and manufacturing method thereof” (Industry-Academia Cooperation Group of Sejong University, priority 2011, dated 2016).)
